Experimental data: publication PMC7400437, “Synthesis and Evaluation of the Antibacterial Activities of 13-Substituted Berberine Derivatives” (Antibiotics, 2020)
Where two headings read alike, the source gives them in different places.

How the values were obtained:
[1] = system: DNA extracted from S. aureus; assay: DNA fragmentation assay; settings: data not shown
[2] = system: C. farmer; assay: MIC, antimicrobial activity assay; format: cell-based, Citrobacter farmeri (ATCC 51633); settings: Citrobacter farmeri; Table 4, Gram-negative
[3] = system: C. perfringens; assay: microbe, parasite or virus in culture; format: cell-based, Clostridium perfringens (ATCC 13124); settings: Clostridium perfringens, read-out: MIC C. perfringens
[4] = system: E. faecalis (Vancomycin-resistant); assay: MIC, antimicrobial activity assay; format: cell-based, vancomycin-resistant Enterococcus faecalis (DSMZ 13591); settings: Enterococcus faecalis, read-out: MIC E. faecalis (Vancomycin-resistant)
[5] = system: bacterial DNA extracted from B. subtilis; assay: DNA fragmentation assay; settings: 6 h at 37 °C, 4-times their MIC
[6] = system: B. subtilis; assay: MIC, antimicrobial activity assay; format: cell-based, Bacillus subtilis (ATCC 6633); settings: Bacillus subtilis
[7] = system: P. aeruginosa; assay: MIC, antimicrobial activity assay; format: cell-based, Pseudomonas aeruginosa (ATCC 9027); settings: Pseudomonas aeruginosa
[8] = system: A. baumannii; assay: MIC, antimicrobial activity assay; format: cell-based, Acinetobacter baumannii (CIP 110431); settings: Acinetobacter baumannii; Table 4, Gram-negative
[9] = system: B. subtilis; assay: Macromolecule synthesis inhibition assay by fluorescent microscopy (morphological changes); settings: 4 × MIC, 2 h, 37 °C; for Observed Morphology: DNA, B. subtilis: DAPI; for Known/Possible Target, B. subtilis: inferred from morphology
[10] = system: H. pylori; assay: MIC, antimicrobial activity assay; format: cell-based, Helicobacter pylori (ATCC 43504); settings: Helicobacter pylori; Table 4, Gram-negative; microaerobic
[11] = system: C. difficile; assay: MIC, antimicrobial activity assay; format: cell-based, Clostridium difficile (DSM 1296); settings: Clostridioides difficile; Table 4, Gram-positive; anaerobic
[12] = system: K. pneumonia; assay: MIC, antimicrobial activity assay; format: cell-based, Klebsiella pneumoniae (DSMZ 26371); settings: Klebsiella pneumoniae; Table 4, Gram-negative
[13] = system: bacterial DNA extracted from V. alginolyticus; assay: DNA fragmentation assay; settings: 6 h at 37 °C, 4-times their MIC
[14] = system: C. albicans; assay: MIC, antifungal activity assay; format: cell-based, Candida albicans (DSM 10697); settings: Candida albicans; Table 1 first screening; 35 °C, 24 h; read-out: Minimal Inhibitory Concentration (MIC) C. albicans
[15] = system: M. smegmatis; assay: microbe, parasite or virus in culture; format: cell-based, Mycobacterium smegmatis (mc2155, ATCC 700084); settings: Mycolicibacterium smegmatis, 72 h, read-out: Minimal Inhibitory Concentration (MIC) M. smegmatis
[16] = system: E. coli; assay: MIC, antimicrobial activity assay; format: cell-based, Escherichia coli (ATCC 8739); settings: Escherichia coli
[17] = system: V. alginolyticus; assay: MIC, antimicrobial activity assay; format: cell-based, Vibrio alginolyticus (DSM 2171); settings: Vibrio alginolyticus; Table 4, Gram-negative
[18] = system: V. alginolyticus; assay: Bacterial membrane permeabilization assay (propidium iodide); format: cell-based, Vibrio alginolyticus; settings: for membrane permeabilization at 4-times MIC, V. alginolyticus: 4-times their MIC; for maximal membrane permeabilization, V. alginolyticus: 120 min exposure to 100 µM, CTAB 300 µM = 100%
Procedure: (§1) Membrane permeabilization by berberine derivatives was evaluated using the cell-impermeable DNA/RNA probe propidium iodide as previously explained. Logarithmic growing bacterial suspensions were prepared from overnight bacterial suspension by 1 in 10 dilution. After 3 h incubation at 37 °C, 200 rpm, bacterial suspensions were centrifuged for 5 min at 3000 rpm. Cell pellets were then resuspended in sterile PBS at about 10^9 cells/mL. Propidium iodide (Sigma Aldrich) was then added to the suspension at a final concentration of 60 µM. 100 µL of this suspension were then transferred into 96-well black plates (Dominique Dutscher) and exposed to increasing concentrations of berberine’s derivative (from 0 to 100 µM, 1:2 dilution). […] All steps of the assay were performed in aerobic condition except for H. pylori which was done in microaerobic condition generated with GasPak unit (Sigma Aldrich). Bacteria were incubated at 37 °C and the kinetics of fluorescence variations (excitation at 530 nm and emission at 590 nm) were then recorded over time using a Synergy Mx microplate reader (Biotek). Cetyl trimethylammonium bromide (CTAB) at 300 µM was used as positive control giving 100% permeabilization. Results were expressed in % of permeabilization. All experiments were done in triplicate.

[19] = system: C. rodentium; assay: MIC, antimicrobial activity assay; format: cell-based, Citrobacter rodentium (ATCC 51116); settings: Citrobacter rodentium; Table 4, Gram-negative
[20] = system: S. aureus; assay: Bacterial membrane permeabilization assay (propidium iodide); format: cell-based, Staphylococcus aureus; settings: for membrane permeabilization at 4-times MIC, S. aureus: 4-times their MIC; for maximal membrane permeabilization, S. aureus: 120 min exposure to 100 µM, CTAB 300 µM = 100%
Procedure: as §1

[21] = Table 1 first screening, read-out: Minimal Inhibitory Concentration (MIC) B. subtilis
[22] = Table 4, Gram-positive, read-out: MIC B. subtilis
[23] = Table 1 first screening, read-out: Minimal Inhibitory Concentration (MIC) P. aeruginosa
[24] = Table 4, Gram-negative, read-out: MIC P. aeruginosa
[25] = Table 1 first screening, read-out: Minimal Inhibitory Concentration (MIC) E. coli
[26] = Table 4, Gram-negative, read-out: MIC E. coli

COc1cc(C(=O)Cc2c3[n+](cc4c(OC)c(OC)ccc24)CCc2cc4c(cc2-3)OCO4)cc(OC)c1OC(=O)c1ccccc1 [Compound 16, 4-[2-(Berberin-13-yl)acetyl]-2,6-dimethoxyphenyl Benzoate]
DNA fragmentation, S. aureus DNA [1]: failed at causing the fragmentation of DNA
MIC [2]: > 100 µM
MIC [3]: 25 µM
MIC [4]: 50 µM
DNA fragmentation, B. subtilis DNA [5]: did not caused DNA fragmentation
MIC [6, 21]: 25 µM
MIC [6, 22]: 25 µM
MIC [7, 23]: > 100 µM
MIC [7, 24]: > 100 µM
MIC [8]: > 100 µM
Observed Morphology: cell elongation/enlargement, B. subtilis [9]: 1.5–6 times compared to control
Observed Morphology: cells connected, B. subtilis [9]: 2–4 cells connected
Observed Morphology: DNA, B. subtilis [9]: 2 morphologies of DNA: • - 2 condensed DNA in each cell • - Decondensed DNA spanning the cell
Known/Possible Target, B. subtilis [9]: Cell wall biosynthesis
MIC [10]: 6.25 µM
MIC [11]: 100 µM
MIC [12]: > 100 µM
DNA fragmentation, V. alginolyticus DNA [13]: did not caused DNA fragmentation
MIC [14]: > 100 µM
MIC [15]: 50 µM
MIC [16, 25]: > 100 µM
MIC [16, 26]: > 100 µM
MIC [17]: 3.12 µM
membrane permeabilization at 4-times MIC, V. alginolyticus [18]: 20–40%
maximal membrane permeabilization, V. alginolyticus [18]: 80–100%
MIC [19]: > 100 µM
membrane permeabilization at 4-times MIC, S. aureus [20]: low to no membrane permeabilization
maximal membrane permeabilization, S. aureus [20]: 80–100%

COc1ccc(C(=O)/C=C/c2ccc(Cc3c4[n+](cc5c(OC)c(OC)ccc35)CCc3cc5c(cc3-4)OCO5)cc2)c(O)c1 [Compound 25, (2E)-3-{4-[(Berberin-13-yl)methyl]phenyl}-1-(2-hydroxy-4-methoxyphenyl)prop-2-en-1-one]
DNA fragmentation, S. aureus DNA [1]: failed at causing the fragmentation of DNA
MIC [2]: > 100 µM
MIC [3]: 25 µM
MIC [4]: 12.5 µM
DNA fragmentation, B. subtilis DNA [5]: did not caused DNA fragmentation
MIC [6, 21]: 6.25 µM
MIC [6, 22]: 6.25 µM
MIC [7, 23]: > 100 µM
MIC [7, 24]: > 100 µM
MIC [8]: > 100 µM
Observed Morphology: cell elongation/enlargement, B. subtilis [9]: 1–2.5 times compared to control
Observed Morphology: cells connected, B. subtilis [9]: 2–8 cells connected
Observed Morphology: DNA, B. subtilis [9]: DNA condensed and cross the cells with dot like shape
Observed Morphology: cell membrane, B. subtilis ([9]; FM4-64FX): Cell membrane thickening
Known/Possible Target, B. subtilis [9]: RNA biosynthesis
MIC [10]: 3.12 µM
MIC [11]: 12.5 µM
MIC [12]: > 100 µM
DNA fragmentation, V. alginolyticus DNA [13]: did not caused DNA fragmentation
MIC [14]: 12.5 µM
MIC [15]: 25 µM
MIC [16, 25]: > 100 µM
MIC [16, 26]: > 100 µM
MIC [17]: 3.12 µM
membrane permeabilization at 4-times MIC, V. alginolyticus [18]: 20–40%
maximal membrane permeabilization, V. alginolyticus [18]: 80–100%
MIC [19]: > 100 µM
membrane permeabilization at 4-times MIC, S. aureus [20]: low to no membrane permeabilization
maximal membrane permeabilization, S. aureus [20]: 80–100%
